From patent publication US20240270741A1 (Cogent Biosciences, Inc., priority 2023, published 2024) come the findings set out here.

Each structure is given as a SMILES string.

The target of this assay is FGFR2 (Homo sapiens, UniProt P21802). Nature of the assay: FGFR wild type enzyme assay (HTRF KinEASE-TK), FGFR2. The note with it: Enz FGFR2 (nM), FGFR2 wild type enzyme assay. (In general: TR-FRET usually uses a lanthanide donor and a delayed reading to cut background.)
FGFR2, sequence (P21802 399-821 limits assumed): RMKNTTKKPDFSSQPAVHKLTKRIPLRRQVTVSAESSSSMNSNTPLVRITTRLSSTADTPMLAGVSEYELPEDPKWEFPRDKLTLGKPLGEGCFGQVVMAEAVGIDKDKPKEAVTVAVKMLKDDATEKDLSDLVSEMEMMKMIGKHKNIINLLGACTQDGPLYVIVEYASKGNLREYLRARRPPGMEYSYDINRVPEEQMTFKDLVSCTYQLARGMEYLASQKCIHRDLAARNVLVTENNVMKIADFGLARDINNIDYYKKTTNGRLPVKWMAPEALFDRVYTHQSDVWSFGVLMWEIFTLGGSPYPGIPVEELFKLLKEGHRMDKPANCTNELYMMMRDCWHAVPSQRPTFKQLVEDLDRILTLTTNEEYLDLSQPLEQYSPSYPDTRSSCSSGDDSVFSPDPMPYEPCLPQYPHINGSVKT
For the compound `N#Cc1cc(F)ccc1Sc1cc(-c2ccc(N3CCCC3)nc2)cn2ncc(C#N)c12` [Example 559, 4-((2-cyano-4-fluorophenyl)thio)-6-(6-(pyrrolidin-1-yl)pyridin-3-yl)pyrazolo[1,5-a]pyridine-3-carbonitrile], the concentration for half-maximal inhibition (IC50) – broadly, the concentration that inhibits the measured activity by half – was found to be 1 nM. The result for `CN1CCN(c2ccc(-c3cc(Sc4ccc(F)cc4C#N)c4c(C#N)cnn4c3)cn2)CC1` [Example 560, 4-((2-cyano-4-fluorophenyl)thio)-6-(6-(4-methylpiperazin-1-yl)pyridin-3-yl)pyrazolo[1,5-a]pyridine-3-carbonitrile] reads 1 nM; that for `Cc1c(-c2cc(Sc3ccc(F)cc3C#N)c3c(C#N)cnn3c2)cnn1C[C@@H](O)CO` [Example 561, (R)-4-((2-cyano-4-fluorophenyl)thio)-6-(1-(2,3-dihydroxypropyl)-5-methyl-1H-pyrazol-4-yl)pyrazolo[1,5-a]pyridine-3-carbonitrile], 7 nM. For `CC(=O)NC1CCN(c2ccc(-c3cc(Sc4ccccc4C#N)c4c(C#N)cnn4c3)cn2)C1` (stereo not shown) [Example 562, N-(1-(5-(3-cyano-4-((2-cyanophenyl)thio)pyrazolo [1,5-a]pyridin-6-yl)pyridin-2-yl)pyrrolidin-3-yl)acetamide] the value was 1 nM. For `C[C@@H](O)C(=O)N1CCC[C@@H](n2cc(-c3cc(Sc4ccccc4C#N)c4c(C#N)cnn4c3)cn2)C1` [Example 563, 4-((2-cyanophenyl)thio)-6-(1-((R)-1-((R)-2-hydroxypropanoyl)piperidin-3-yl)-1H-pyrazol-4-yl)pyrazolo[1,5-a]pyridine-3-carbonitrile] the value was 1 nM; for `CO[C@@H](C)C(=O)N1CCC(n2cc(-c3cc(Sc4ccccc4C#N)c4c(C#N)cnn4c3)cn2)CC1` [Example 564, (S)-4-((2-cyanophenyl)thio)-6-(1-(1-(2-methoxypropanoyl)piperidin-4-yl)-1H-pyrazol-4-yl)pyrazolo[1,5-a]pyridine-3-carbonitrile], 0.5 nM; for `CO[C@H](C)C(=O)N1CCC(n2cc(-c3cc(Sc4ccccc4C#N)c4c(C#N)cnn4c3)cn2)CC1` [Example 565, (R)-4-((2-cyanophenyl)thio)-6-(1-(1-(2-methoxypropanoyl)piperidin-4-yl)-1H-pyrazol-4-yl)pyrazolo[1,5-a]pyridine-3-carbonitrile], 0.5 nM. For `N#Cc1ccccc1Sc1cc(-c2cnn(CCO)c2)cn2ncc(C#N)c12` [Example 566, 4-((2-cyanophenyl)thio)-6-(1-(2-hydroxyethyl)-1H-pyrazol-4-yl)pyrazolo[1,5-a]pyridine-3-carbonitrile], the midpoint of inhibition, the IC50, lay at 2 nM.

Turning to `C[C@@H](O)Cn1cc(-c2cc(Sc3ccccc3C#N)c3c(C#N)cnn3c2)cn1` [Example 567, (R)-4-((2-cyanophenyl)thio)-6-(1-(2-hydroxypropyl)-1H-pyrazol-4-yl)pyrazolo[1,5-a]pyridine-3-carbonitrile], the midpoint of inhibition, the IC50, lay at 1 nM.

For the compound `C[C@H](O)Cn1cc(-c2cc(Sc3ccccc3C#N)c3c(C#N)cnn3c2)cn1` [Example 568, (S)-4-((2-cyanophenyl)thio)-6-(1-(2-hydroxypropyl)-1H-pyrazol-4-yl)pyrazolo[1,5-a]pyridine-3-carbonitrile], inhibition was half-maximal at 1 nM (IC50). The result for `N#Cc1ccccc1Sc1cc(-c2cn[nH]c2)cn2ncc(C#N)c12` [Example 569, 4-((2-cyanophenyl)thio)-6-(1H-pyrazol-4-yl)pyrazolo[1,5-a]pyridine-3-carbonitrile] reads 2 nM; that for `C[C@H](O)CCn1cc(-c2cc(Sc3ccccc3C#N)c3c(C#N)cnn3c2)cn1` [Example 570], 1 nM; that for `C[C@@H](O)CCn1cc(-c2cc(Sc3ccccc3C#N)c3c(C#N)cnn3c2)cn1` [Example 571, (R)-4-((2-cyanophenyl)thio)-6-(1-(3-hydroxybutyl)-1H-pyrazol-4-yl)pyrazolo[1,5-a]pyridine-3-carbonitrile], 1 nM.
